This note sets out measurements from US20240261257A1, “METHODS OF TREATING BACTERIAL INFECTIONS” (Sheba Impact Ltd., priority 2023, published 2024).

One assay relates to MSSA SA 256. In words: broth microdilution growth inhibition (CLSI), MSSA SA 256. It counts as cell-based, S. aureus. Particulars: CAMHB broth microdilution, read-out: concentration (μM) which inhibits 50% (or more) growth. As for the experimental part: (§1) Iron-free enterobactin from E. coli was purchased from Sigma-Aldrich (E3910) and from EMC (Tübingen, Germany), iron-free salmochelin S4 was purchased from EMC (Tübingen, Germany).
(§2) Bacterial strains were provided by the Clinical Microbiology Laboratory at Sheba Medical Center.
(§3) Bacterial final inoculum was 5×10^5 colony-forming units ml^−1. Enterobactin and salmochelin were dissolved in 100% dimethylsulfoxide (DMSO) to a stock solution of 10 μM and further diluted using CAMHB to final concentrations.
In general terms: Dilution methods test growth across graded concentrations, often in twofold steps.

A further assay deals with S. aureus ATCC 25923. In words: broth microdilution growth inhibition (CLSI), S. aureus ATCC 25923. Particulars: CAMHB broth microdilution, read-out: concentration (μM) which inhibits 50% (or more) growth. It counts as cell-based. As for the experimental part:
as §1, §2, §3

For a further assay, the system named is MRSA SA 255. Nature of the assay: broth microdilution growth inhibition (CLSI), MRSA SA 255. In kind it is cell-based, S. aureus. Particulars: CAMHB broth microdilution, read-out: concentration (μM) which inhibits 50% (or more) growth. The protocol:
as §1, §2, §3

In the next assay the test system is MRSA SA 196. In words: broth microdilution growth inhibition (CLSI), MRSA SA 196. It counts as cell-based, S. aureus. Particulars: CAMHB broth microdilution, read-out: concentration (μM) which inhibits 50% (or more) growth. As for the experimental part: as §1, §2, §3
Assay [1] deals with clinical isolates of MRSA USA300. Nature of the assay: inhibitory effect on clinical isolates of MRSA USA300 (FIGS. 1A-B). It counts as cell-based, Staphylococcus aureus. As for the experimental part: as §1, §2, §3
In the next assay the test system is S. aureus. Nature of the assay: antimicrobial activity against S. aureus (combinations, iron ions; strain not named). In kind it is cell-based. Particulars: iron ions added; FIGS. 6A-B. The protocol: as §1, §2, §3
The subject of a further assay is MRSA SA 742 USA300. In words: broth microdilution growth inhibition (CLSI), MRSA SA 742 USA300. In kind it is cell-based, S. aureus. The settings on record: CAMHB broth microdilution, read-out: concentration (μM) which inhibits 50% (or more) growth. As for the experimental part: as §1, §2, §3
For a further assay, the system named is MRSA SA 198 USA300. Nature of the assay: broth microdilution growth inhibition (CLSI), MRSA SA 198. Particulars: CAMHB broth microdilution, read-out: concentration (μM) which inhibits 50% (or more) growth. It counts as cell-based, S. aureus. The protocol: as §1, §2, §3
A further assay relates to VRE 195. Nature of the assay: inhibitory effect on clinical isolate VRE 195. It counts as cell-based, vancomycin resistant Enterococci. Particulars: FIG. 2A, FIG. 3A. As for the experimental part:
as §1, §2, §3

The test system of another assay is MSSA SA 197 USA300. In words: broth microdilution growth inhibition (CLSI), MSSA SA 197 USA300. It counts as cell-based, S. aureus. Particulars: CAMHB broth microdilution, read-out: concentration (μM) which inhibits 50% (or more) growth. The protocol: as §1, §2, §3
The test system of another assay is VRE 197. In words: inhibitory effect on clinical isolate VRE 197. Particulars: FIG. 2B, FIG. 3B. In kind it is cell-based, vancomycin resistant Enterococci. The protocol: as §1, §2, §3

Molecules are shown by their SMILES.

In the case of `O=C(N[C@H]1COC(=O)[C@@H](NC(=O)c2cccc(O)c2O)COC(=O)[C@@H](NC(=O)c2cccc(O)c2O)COC1=O)c1cccc(O)c1O` [Enterobactin, enterobactin], the IC50 in the assay on MSSA SA 256 is over 5 µM; in the assay on S. aureus ATCC 25923, 6 ± 2.7 µM; in the assay on MRSA SA 255, over 5 µM; in the assay on MRSA SA 196, 5 µM; in the assay on MRSA SA 742 USA300, 10 µM; in the assay with MRSA SA 198 USA300, over 5 µM. Moreover, the IC50 with MSSA SA 197 USA300 is over 5 µM. In [1], the “inhibitory effect on clinical isolates of MRSA USA300” value is listed as “inhibitory effect”. In addition, the “antimicrobial activity against S. aureus in the presence of iron ions” value with S. aureus is recorded as “reduce but do not abolish”. In addition, the “inhibitory effect on clinical isolates of VRE 195” value with VRE 195 is on record as “inhibitory effect”. Also, in the assay on VRE 197, the “inhibitory effect on clinical isolates of VRE 197” value is given as “inhibitory effect”.

Take `O=C(N[C@H]1COC(=O)[C@@H](NC(=O)c2cc([C@@H]3O[C@H](CO)[C@@H](O)[C@H](O)[C@H]3O)cc(O)c2O)COC(=O)[C@@H](NC(=O)c2cc([C@@H]3O[C@H](CO)[C@@H](O)[C@H](O)[C@H]3O)cc(O)c2O)COC1=O)c1cccc(O)c1O` [Salmochelin, Salmochelin S4]: the IC50 with MSSA SA 256 amounted to 5 µM; in the assay with S. aureus ATCC 25923 it was 2.4 ± 0.22 µM; in the assay on MRSA SA 255 it was 5 µM; in the assay on MRSA SA 196, 2.5 µM; in the assay with MRSA SA 742 USA300 it was 3.12 ± 1.25 µM; in the assay on MRSA SA 198 USA300 it was 5 µM. Further, the IC50 in the assay on MSSA SA 197 USA300 is 2.5 µM. Further, the “inhibitory effect on clinical isolates of MRSA USA300” value in assay [1] is on record as “inhibitory effect”. Further, in the assay on S. aureus, the “antimicrobial activity against S. aureus in the presence of iron ions” value was “reduce but do not abolish”. In the assay on VRE 195, the “inhibitory effect on clinical isolates of VRE 195” value was “inhibitory effect”. For the same compound, in the assay on VRE 197, the “inhibitory effect on clinical isolates of VRE 197” value is listed as “inhibitory effect”.
